This note sets out measurements from US20260242391A1 (priority 2023, published 2026).

Data set [1] is described as follows: in vitro. As to conditions: human.
In data set [2] the test system is HL-60. Kind of data set: HL-60 differentiation potency. The data set is classed as cell-based. To be noted: Homo sapiens.

Some results are limits rather than exact numbers.

In general, IC50 refers to the midpoint of a concentration-inhibition curve. Usually EC50 stands for the midpoint of the concentration-response curve. `C[C@H]1[C@@H](Oc2ccc(C(F)(F)C(=O)O)cc2)O[C@@H]2O[C@@]3(C)CC[C@H]4[C@H](C)CC[C@@H]1[C@@]24OO3` [Compound 171, 2,2-difluoro-2-(4-(((3R,5aS,6R,8aS, 9R,10S,12R, 12aR)-3,6,9-trimethyldeca-hydro-12H-3,12-epoxy[1,2]dioxepino[4,3-i]isochromen-10-yl)oxy)phenyl) acetic acid] gave an IC50 in data set [1] of more than 20 µM. For the same molecule, the EC50 in data set [2] came out at 7.07 µM.
In data set [1], `C[C@H]1[C@H](OCc2ccc3c(c2)OC(F)(F)O3)O[C@@H]2O[C@@]3(C)CC[C@H]4[C@H](C)CC[C@@H]1[C@@]24OO3` [Compound 6, (3R,5aS,6R,8aS, 9R,10R,12R, 12aR)-10-((2,2-difluorobenzo [d][1,3]dioxol-5-yl)methoxy)-3,6,9-trimethyldeca-hydro-12H-3,12-epoxy[1,2] dioxepino[4,3-i] isochromene] yielded an IC50 of 0.05 µM. In data set [2], this molecule had an EC50 of 0.0532 µM.
For `C[C@H]1[C@H](N(C)Cc2ccc(C(=O)O)cc2)O[C@@H]2O[C@@]3(C)CC[C@H]4[C@H](C)CC[C@@H]1[C@@]24OO3` [Compound 102, 4-((methyl((3R, 5aS,6R,8aS,9R, 10R,12R,12aR)-3,6,9-trimethyldeca-hydro-12H-3,12-epoxy[1,2]dioxepino[4,3-i]isochromen-10-yl)amino)methyl) benzoic acid], the IC50 in data set [1] was more than 20 µM. Besides, the EC50 in data set [2] is more than 20 µM.
For `C[C@H]1[C@@H](OCc2ccc(C(=O)O)c(C(F)(F)F)c2)O[C@@H]2O[C@@]3(C)CC[C@H]4[C@H](C)CC[C@@H]1[C@@]24OO3` [Compound 155, 2-(trifluoromethyl)-4-((((3R,5aS,6R, 8aS,9R,10S,12R, 12aR)-3,6,9-trimethyldeca-hydro-12H-3,12-epoxy[1,2]dioxepino[4,3-i]isochromen-10-yl)oxy)methyl) benzoic acid], in data set [1], the IC50 was more than 20 µM. Moreover, the EC50 in data set [2] is 0.175 µM.
In data set [1], `C[C@H]1[C@H](OCC(=O)N2CC[C@@H](C(=O)O)C2)O[C@@H]2O[C@@]3(C)CC[C@H]4[C@H](C)CC[C@@H]1[C@@]24OO3` [Compound 163, (R)-1-(2-(((3R,5aS,6R,8aS, 9R,10R,12R, 12aR)-3,6,9-trimethyldeca-hydro-12H-3,12-epoxy[1,2]dioxepino[4,3-i]isochromen-10-yl)oxy)acetyl) pyrrolidine-3-carboxylic acid] gave an IC50 of more than 20 µM. In addition, the EC50 in data set [2] is more than 20 µM.
For `C[C@H]1[C@@H](OCC(=O)N2CC[C@@H](C(=O)O)C2)O[C@@H]2O[C@@]3(C)CC[C@H]4[C@H](C)CC[C@@H]1[C@@]24OO3` [Compound 161, (R)-1-(2-(((3R,5aS,6R,8aS, 9R,10S,12R, 12aR)-3,6,9-trimethyldeca-hydro-12H-3,12-epoxy[1,2]dioxepino[4,3-i]isochromen-10-yl)oxy)acetyl) pyrrolidine-3-carboxylic acid], in data set [1], the IC50 was more than 20 µM. This molecule registered an EC50 in data set [2] of more than 20 µM.
`C[C@H]1[C@@H](Oc2ccc(C3(C(=O)O)CC3)cc2)O[C@@H]2O[C@@]3(C)CC[C@H]4[C@H](C)CC[C@@H]1[C@@]24OO3` [Compound 124, 1-(4-(((3R,5aS,6R,8aS, 9R,10S,12R, 12aR)-3,6,9-trimethyldeca-hydro-12H-3,12-epoxy[1,2]dioxepino[4,3-i]isochromen-10-yl)oxy)phenyl) cyclopropane-1-carboxylic acid] yielded an IC50 in data set [1] of 2.45 µM. A half-maximal response in data set [2] (EC50) required 0.0288 µM.
The corresponding values for `C[C@H]1[C@@H](OCC(=O)N2C[C@@H](O)C[C@H]2C(=O)O)O[C@@H]2O[C@@]3(C)CC[C@H]4[C@H](C)CC[C@@H]1[C@@]24OO3` [Compound 160, (2S,4S)-4-hydroxy-1-(2-(((3R,5aS,6R,8aS, 9R,10S,12R, 12aR)-3,6,9-trimethyldeca-hydro-12H-3,12-epoxy[1,2]dioxepino[4,3-i]isochromen-10-yl)oxy)acetyl) pyrrolidine-2-carboxylic acid] are more than 20 µM and more than 20 µM.
`C[C@H]1[C@H](NCCS(=O)(=O)N(C)C)O[C@@H]2O[C@@]3(C)CC[C@H]4[C@H](C)CC[C@@H]1[C@@]24OO3` [Compound 59, N,N-dimethyl-2-(((3R,5aS,6R, 8aS,9R,10R,12R, 12aR)-3,6,9-trimethyldeca-hydro-12H-3,12-epoxy[1,2]dioxepino[4,3-i]isochromen-10-yl)amino) ethane-1-sulfonamide]: the IC50 in data set [1] was found to be 11 µM. In data set [2], this molecule came in with an EC50 of 9.63 µM.
For the molecule `C[C@H]1[C@@H](OCCc2ccc(C(=O)O)cc2)O[C@@H]2O[C@@]3(C)CC[C@H]4[C@H](C)CC[C@@H]1[C@@]24OO3` [Compound 36, 4-(2-(((3R,5aS,6R,8aS, 9R,10S,12R, 12aR)-3,6,9-trimethyldeca-hydro-12H-3,12-epoxy[1,2]dioxepino[4,3-i]isochromen-10-yl)oxy)ethyl) benzoic acid], the IC50 in data set [1] was more than 20 µM. A half-maximal effect in data set [2] (EC50) was put at 0.526 µM.
The corresponding values for `C[C@H]1[C@H](OCC(=O)N2CCC(C(=O)O)CC2)O[C@@H]2O[C@@]3(C)CC[C@H]4[C@H](C)CC[C@@H]1[C@@]24OO3` [Compound 164, 1-(2-(((3R,5aS,6R,8aS, 9R,10R,12R, 12aR)-3,6,9-trimethyldeca-hydro-12H-3,12-epoxy[1,2]dioxepino[4,3-i]isochromen-10-yl)oxy)acetyl) piperidine-4-carboxylic acid] are more than 20 µM and more than 20 µM.
Take `C[C@H]1[C@@H](OCc2ccc3c(c2)OC(F)(F)O3)O[C@@H]2O[C@@]3(C)CC[C@H]4[C@H](C)CC[C@@H]1[C@@]24OO3` [Compound 1, (3R,5aS,6R,8aS, 9R,10S,12R, 12aR)-10-((2,2-difluorobenzo[d] [1,3]dioxol-5-yl)methoxy)-3,6,9-trimethyldeca-hydro-12H-3,12-epoxy[1,2] dioxepino[4,3-i]isochromene]: the IC50 in data set [1] turned out to be 0.0106 µM. In addition, in data set [2], the response was half-maximal at 0.0111 µM (EC50).
The molecule `C[C@H]1[C@@H](OCCCc2ccc(C(=O)O)cc2)O[C@@H]2O[C@@]3(C)CC[C@H]4[C@H](C)CC[C@@H]1[C@@]24OO3` [Compound 10, 4-(3-(((3R,5aS,6R, 8aS,9R,10S,12R, 12aR)-3,6,9-trimethyldeca-hydro-12H-3,12-epoxy[1,2]dioxepino[4,3-i]isochromen-10-yl)oxy)propyl) benzoic acid] came in with an IC50 in data set [1] of more than 10 µM. Also, in data set [2], the EC50 came out at 0.0638 µM.
Take `C[C@H]1[C@@H](OC[C@]2(F)CC[C@H](C(=O)O)CC2)O[C@@H]2O[C@@]3(C)CC[C@H]4[C@H](C)CC[C@@H]1[C@@]24OO3` [Compound 140, (1S,4r)-4-fluoro-4-((((3R,5aS,6R,8aS, 9R,10S,12R, 12aR)-3,6,9-trimethyldeca-hydro-12H-3,12-epoxy[1,2]dioxepino[4,3-i]isochromen-10-yl)oxy)methyl) cyclohexane-1-carboxylic acid]: in data set [1], the IC50 was 19 µM. This molecule registered an EC50 in data set [2] of 0.314 µM.
Taken in the same sequence, the figures for `C[C@H]1[C@H](N2CC(S(C)(=O)=O)C2)O[C@@H]2O[C@@]3(C)CC[C@H]4[C@H](C)CC[C@@H]1[C@@]24OO3` [Compound 4, 3-(methylsulfonyl)-1-((3R,5aS,6R, 8aS,9R,10R, 12R,12aR)-3,6,9-trimethyldeca-hydro-1H-3,12-epoxy[1,2]dioxepino[4,3-i]isochromen-10-yl)azetidine] were 0.101 µM and 0.0428 µM.
For the molecule `C[C@H]1[C@H](NCc2ccc(S(C)(=O)=O)cc2)O[C@@H]2O[C@@]3(C)CC[C@H]4[C@H](C)CC[C@@H]1[C@@]24OO3` [Compound 58, (3R,5aS,6R,8aS, 9R,10R,12R, 12aR)-3,6,9-trimethyl-N-(4-(methylsulfonyl)benzyl) decahydro-12H-3,12-epoxy[1,2] dioxepino[4,3-i] isochromen-10-amine], 8.34 µM corresponded to half-maximal inhibition in data set [1] (IC50). Also, in data set [2], the EC50 came out at 9.12 µM.
With `C[C@H]1[C@H](OCC#Cc2ccc(C(=O)O)cc2F)O[C@@H]2O[C@@]3(C)CC[C@H]4[C@H](C)CC[C@@H]1[C@@]24OO3` [Compound 166, 3-fluoro-4-(3-(((3R,5aS,6R,8aS, 9R,10R,12R, 12aR)-3,6,9-trimethyldeca-hydro-12H-3,12-epoxy[1,2]dioxepino[4,3-i]isochromen-10-yl)oxy)prop-1-yn-1-yl)benzoic acid], it took 1.8 µM to reach half-maximal inhibition in data set [1] (IC50). In addition, the EC50 in data set [2] stood at 0.0669 µM.
In the case of `C[C@H]1[C@H](N(C)C23CC(C(=O)O)(C2)C3)O[C@@H]2O[C@@]3(C)CC[C@H]4[C@H](C)CC[C@@H]1[C@@]24OO3` [Compound 103, 3-(methyl((3R,5aS, 6R,8aS,9R,10R, 12R,12aR)-3,6,9-trimethyldeca-hydro-12H-3,12-epoxy[1,2]dioxepino[4,3-i]isochromen-10-yl)amino)bicyclo [1.1.1]pentane-1-carboxylic acid], the IC50 in data set [1] was more than 20 µM. Moreover, the EC50 in data set [2] is more than 20 µM.
In data set [1], `C[C@H]1[C@H](OCc2ccc(S(N)(=O)=O)cc2)O[C@@H]2O[C@@]3(C)CC[C@H]4[C@H](C)CC[C@@H]1[C@@]24OO3` [Compound 49, 4-((((3R,5aS,6R,8aS, 9R,10R,12R, 12aR)-3,6,9-trimethyldeca-hydro-12H-3,12-epoxy[1,2]dioxepino[4,3-i]isochromen-10-yl)oxy)methyl) benzene-sulfonamide] showed an IC50 not below 20 µM. This molecule also returned an EC50 in data set [2] of 2.1 µM.
For `C[C@H]1[C@@H](OC[C@H]2CCC[C@@H](C(=O)O)C2)O[C@@H]2O[C@@]3(C)CC[C@H]4[C@H](C)CC[C@@H]1[C@@]24OO3` [Compound 135, (1R,3S)-3-((((3R,5aS,6R, 8aS,9R,10S,12R, 12aR)-3,6,9-trimethyldeca-hydro-12H-3,12-epoxy[1,2]dioxepino[4,3-i]isochromen-10-yl)oxy)methyl) cyclohexane-1-carboxylic acid], in data set [1], the IC50 is more than 20 µM. In addition, the EC50 in data set [2] was 0.225 µM.
`C[C@H]1[C@@H](Oc2ccc(CC(=O)O)cc2C(F)(F)F)O[C@@H]2O[C@@]3(C)CC[C@H]4[C@H](C)CC[C@@H]1[C@@]24OO3` [Compound 183, 2-(3-(trifluoromethyl)-4-(((3R,5aS,6R, 8aS,9R,10S,12R, 12aR)-3,6,9-trimethyldeca-hydro-12H-3,12-epoxy[1,2]dioxepino[4,3-i]isochromen-10-yl)oxy)phenyl) acetic acid] registered an IC50 in data set [1] of 0.9 µM. In data set [2], this molecule returned a 50% effective concentration (EC50) of 0.0471 µM.
